Active and inactive are the calls of the source. No cut-off for these calls is given here.
Legend:
[1] = Cytotoxicity against human BEAS-2B cells with low TrxR expression assessed as reduction in cell viability incubated for 48 hrs by MTT assay; format: toxicity, cell-based
[2] = Stability in human plasma assessed as parent compound remaining at 100 uM measured after 48 hrs by HPLC analysis; format: ADME, cell-free; conditions: read-out: Stability
MCF7 [3] = assay: Cytotoxicity against human MCF7 cells with low TrxR expression assessed as reduction in cell viability incubated for 48 hrs by MTT assay; format: functional, cell-based; conditions: MCF7, 48 h
[4] = Prodrug activation assessed as TrxR (unknown origin) mediated compound reduction by measuring absorbance at 340 nm at 150 uM in presence of NADPH; conditions: human
[5] = Cytotoxicity against human HEK293T cells with low TrxR expression assessed as reduction in cell viability incubated for 48 hrs by MTT assay; format: toxicity, cell-based, HEK-293T
HepG2 [6] = assay: Cytotoxicity against human HepG2 cells with high TrxR expression assessed as reduction in cell viability incubated for 48 hrs by MTT assay; format: functional, cell-based; conditions: HepG2, 48 h
HL-60 [7] = assay: Cytotoxicity against human HL-60 cells with low TrxR expression assessed as reduction in cell viability incubated for 48 hrs by MTT assay; format: functional, cell-based; conditions: HL-60, 48 h
HeLa [8] = assay: Cytotoxicity against human HeLa cells with high TrxR expression assessed as reduction in cell viability incubated for 48 hrs by MTT assay; format: functional, cell-based
[9] = Stability in mouse plasma assessed as parent compound remaining at 100 uM measured after 48 hrs by HPLC analysis; format: ADME, cell-free; conditions: read-out: Stability
[10] = Stability of compound in PBS at pH 7.4 assessed as parent compound remaining at 100 uM measured after 48 hrs by HPLC analysis; format: physicochemical; conditions: read-out: Stability
[11] = Prodrug activation in human HepG2 cells assessed as increase in rhodamine labelling at 1 uM incubated for 12 hrs by in-gel fluorescence imaging analysis; format: cell-based; conditions: hepg2, 12 h
[12] = Prodrug activation in human HepG2 cells assessed as increase in biotin labelling at 1 uM incubated for 12 hrs by Western blotting analysis; format: cell-based; conditions: hepg2, 12 h
[13] = Prodrug conversion in human HepG2 cells assessed as proteome incorporation at 1 uM pretreated with AF for 30 mins followed by compound addition; format: ADME, cell-based; conditions: hepg2, 1 µM
[14] = Prodrug activation in human HepG2 cells assessed as increase in rhodamine labelling at 10 uM incubated for 12 hrs by in-gel fluorescence imaging analysis; format: cell-based; conditions: hepg2, 12 h
[15] = Prodrug activation in human HepG2 cells assessed as increase in biotin labelling at 10 uM incubated for 12 hrs by Western blotting analysis; format: cell-based; conditions: hepg2, 12 h
[16] = Prodrug conversion in human HepG2 cells assessed as inhibition of proteome incorporation at 1 uM pretreated with AF for 30 mins followed by compound addition; format: cell-based; conditions: hepg2, 1 µM
HepG2 [17] = assay: Cytotoxicity against human HepG2 cells expressing shTXNRD1 assessed as reduction in cell viability incubated for 48 hrs by MTT assay; format: functional, cell-based; conditions: HepG2, 48 h
[18] = (§1) Prodrug activation in human HeLa cell lysate expressing shTXNRD1 assessed as reduction in 1,2-dithiolan-4-yl ((S)-1-(((2S,3S,4R,5R)-5-(6-(dimethylamino)-9H-purin-9-yl)-4-hydroxy-2-(hydroxymethyl)tetrahydrofuran-3-yl)amino)-3-(4-methoxyphenyl)-1-oxopropan-2-yl)carbamate level by measuring absorbance at 340 nm at 150 uM pretreated with TrxR inhibitor AF for 30 mins followed by compound addition in presence of NADPH; format: ADME, subcellular
[19] = target: T1, Thioredoxin (Homo sapiens) (UniProt P10599); assay: (§2) Substrate activity at Trx (unknown origin) assessed as reduction in 1,2-dithiolan-4-yl ((S)-1-(((2S,3S,4R,5R)-5-(6-(dimethylamino)-9H-purin-9-yl)-4-hydroxy-2-(hydroxymethyl)tetrahydrofuran-3-yl)amino)-3-(4-methoxyphenyl)-1-oxopropan-2-yl)carbamate level by measuring absorbance at 340 nm at 150 uM in presence of NADPH
T1 sequence (whole entry): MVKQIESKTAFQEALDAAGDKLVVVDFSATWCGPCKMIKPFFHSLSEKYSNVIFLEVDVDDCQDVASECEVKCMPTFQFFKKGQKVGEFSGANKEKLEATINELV

[20] = Prodrug activation assessed as increase in TrxR (unknown origin) mediated NADPH oxidation by measuring absorbance at 340 nm at 150 uM; conditions: human
HL-60 [21] = assay: Potency index, ratio of test compound IC50 to puromycin IC50 for cytotoxicity against human HL-60 cells; format: functional
BEAS-2B = assay: Potency index, ratio of test compound IC50 to puromycin IC50 for cytotoxicity against human BEAS-2B cells; format: functional
HeLa [22] = assay: Potency index, ratio of test compound IC50 to puromycin IC50 for cytotoxicity against human HeLa cells; format: functional
MCF7 [23] = assay: Potency index, ratio of test compound IC50 to puromycin IC50 for cytotoxicity against human MCF7 cells; format: functional
HEK-293T = assay: Potency index, ratio of test compound IC50 to puromycin IC50 for cytotoxicity against human HEK293T cells; format: functional
HepG2 [24] = assay: Potency index, ratio of test compound IC50 to puromycin IC50 for cytotoxicity against human HepG2 cells; format: functional
HepG2 [25] = assay: Cytotoxicity against human HepG2 cells expressing shNT assessed as reduction in cell viability incubated for 48 hrs by MTT assay; format: functional, cell-based; conditions: HepG2, 48 h
[26] = as §1, with “lysate” for “lysate expressing shTXNRD1”; format: ADME, subcellular
[27] = target: T1, Thioredoxin (Homo sapiens); assay: as §2, with “2-((2-hydroxyethyl)disulfaneyl)ethyl” for “1,2-dithiolan-4-yl”
[28] = Prodrug activation assessed as GSH mediated compound reduction by measuring absorbance at 340 nm at 150 uM in presence of NADPH

| Structure (SMILES) | IC50 at 48 h [1] [µM] | remaining at 48 h, 100 µM [2] [%] | IC50 (MCF7 [3]) [µM] | IC50 at 48 h [5] [µM] | IC50 (HepG2 [6]) [µM] | IC50 (HL-60 [7]) [µM] | IC50 (HeLa [8]) [µM] | remaining at 48 h, 100 µM [9] [%] | remaining at 48 h, 100 µM [10] [%] | other results |
| --- | --- | --- | --- | --- | --- | --- | --- | --- | --- | --- |
| COc1ccc(C[C@H](NC(=O)OCCCCCCO)C(=O)N[C@H]2[C@@H](O)[C@H](n3cnc4c(N(C)C)ncnc43)O[C@@H]2CO)cc1 | > 40 | > 90 | > 40 | > 40 | > 40 | > 40 | > 40 | > 90 | > 90 | Drug metabolism [4]: Metabolite_Notdetected |
| C#CCOc1ccc(C[C@H](N)C(=O)N[C@H]2[C@@H](O)[C@H](n3cnc4c(N(C)C)ncnc43)O[C@@H]2CO)cc1 | – | – | – | – | – | – | – | – | – | Activity [11]: Active; Activity [12]: Active; Activity [13]: Active |
| C#CCOc1ccc(C[C@H](NC(=O)OC2CSSC2)C(=O)N[C@H]2[C@@H](O)[C@H](n3cnc4c(N(C)C)ncnc43)O[C@@H]2CO)cc1 | – | – | – | – | – | – | – | – | – | Activity [14]: Active; Activity [15]: Active; inhibition (INH) [16]: Active |
| COc1ccc(C[C@H](N)C(=O)N[C@H]2[C@@H](O)[C@H](n3cnc4c(N(C)C)ncnc43)O[C@@H]2CO)cc1 [PUROMYCIN] | 0.74 | – | 1.06 | 1.28 | 1.29 | 3.73 | 0.9 | – | – | – |
| COc1ccc(C[C@H](NC(=O)OC2CSSC2)C(=O)N[C@H]2[C@@H](O)[C@H](n3cnc4c(N(C)C)ncnc43)O[C@@H]2CO)cc1 | 8.42 | > 90 | 14.2 | 19.5 | 8.08 | 55 | 6.08 | > 90 | > 90 | IC50 (HepG2 [17]): 11.3 µM; Drug metabolism [18]: Metabolite_Notdetected; Activity [19]: Active; Activity [20]: Active; Ratio IC50 (HL-60 [21]): 14.7; Ratio IC50 (BEAS-2B): 11.4; Ratio IC50 (HeLa [22]): 6.8; Ratio IC50 (MCF7 [23]): 13.4; Ratio IC50 (HEK-293T): 15.2; Ratio IC50 (HepG2 [24]): 6.3; IC50 (HepG2 [25]): 4.88 µM; Drug metabolism [26]: Metabolite_Notdetected |
| COc1ccc(C[C@H](NC(=O)OCCSSCCO)C(=O)N[C@H]2[C@@H](O)[C@H](n3cnc4c(N(C)C)ncnc43)O[C@@H]2CO)cc1 | 12.6 | 29 | 27.5 | 24.7 | 9.27 | 56.7 | 6.84 | 42 | > 90 | Activity [27]: Active; Activity [28]: Active |
| COc1ccc(C[C@H](NC(=O)OC2CCCC2)C(=O)N[C@H]2[C@@H](O)[C@H](n3cnc4c(N(C)C)ncnc43)O[C@@H]2CO)cc1 | > 40 | > 90 | > 40 | > 40 | > 40 | > 40 | > 40 | > 90 | > 90 | Drug metabolism [4]: Metabolite_Notdetected |
